From patent US9944600B2, “Piperidine derivatives for GPR119 agonist” (CHONG KUN DANG PHARMACEUTICAL CORP., priority 2012, dated 2018)

Tests used:
[1] = target: T1, GPR 119 Receptor (Mus musculus, UniProt Q7TQP3); test: Glucose tolerance test / whole blood glucose level change in disease model animal (DIO mouse); format: in vivo; conditions: daily
T1 construct: from tissue; host or cells: whole animal: male C57/6J Jms mice (normal) or diet induced obesity C57BL/6J mice
T1 sequence (Q7TQP3 1-335): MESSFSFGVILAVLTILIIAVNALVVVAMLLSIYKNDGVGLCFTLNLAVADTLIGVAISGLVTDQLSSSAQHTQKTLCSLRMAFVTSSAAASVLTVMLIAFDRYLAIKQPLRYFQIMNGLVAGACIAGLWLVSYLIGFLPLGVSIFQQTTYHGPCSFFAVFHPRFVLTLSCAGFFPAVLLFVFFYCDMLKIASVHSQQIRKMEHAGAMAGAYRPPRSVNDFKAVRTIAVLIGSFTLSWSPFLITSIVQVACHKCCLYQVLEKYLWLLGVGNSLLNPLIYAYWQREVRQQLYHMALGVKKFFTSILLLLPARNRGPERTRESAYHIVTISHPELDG
Description: Male C57BL/6J mice of 6.5 weeks of age were taken with high fat diet (60% kcal, Research Diets) for 12 weeks. The obtained male diet induced obesity (DIO) C57BL/6J mice of 18.5 weeks of age were fasted for 16 hours before the start of glucose tolerance test. The experimental animal groups consist of: • A. a vehicle group (10% EtOH, 20% HPBCD in D.W.), • B. a positive control group administered with Sitagliptin (30 mg/kg), and • C. test groups administered with compound 770 and Compound 1028 (10, 30 mgkg and combination administration with sitagliptin 30 mg/kg).
Each test compounds was administered at the same time of every day for 2 weeks. Before the compound administration, whole blood glucose level was determined using a Glucometer (ACCU-CHEK, Roche). At 30 minutes after compound administration, whole blood glucose level was determined once again, and 20% glucose (2 g/kg/10 mL) was administered orally. Whole blood glucose level was determined at 20, 40, 60, 80, and 120 minutes after 20% glucose administration. Area under the curve (AUC) of whole blood glucose level was obtained using GraphPad Prism 5.0. The effect of glucose tolerance was adjudged with the corrected area under the curve (cAUC), on which the base value of glucose area under the curve was excluded.
Whole blood glucose level was measured at about 1 hour after test compound administration from caudal vein of mice using Glucometer. Whole blood glucose level was determined three times totally, that is, (1) at prior to the start of drug administration, (2) after 1 week from the start of 2-weeks drug administration, and (3) after the termination of 2-weeks drug administration. Each determination was started with 20% glucose administration, and then perfomed at 20, 40, 60, 80, and 120 minutes after 20% glucose administration.

[2] = target: T2, human GPR119 receptor (Homo sapiens, UniProt Q8TDV5); test: Activity test for human GPR119 receptor (GeneBLAzer T-Rex GPR 119 CHO-K1 DA cells, fluorescence reporter); format: cell-based; conditions: human GPR119 CHO-K1 reporter cells, 5 hours treatment, ratio to vehicle control well, read-out: % Activation; for activity at 0.1 µM: test compound conc. 0.1 μM; for activity at 1 µM: test compound conc. 1 μM; for activity at 10 µM: test compound conc. 10 μM
T2 construct: host or cells: GeneBLAzer T-Rex GPR 119 CHO-K1 DA cells (CHO-K1)
T2 sequence (Q8TDV5 1-335): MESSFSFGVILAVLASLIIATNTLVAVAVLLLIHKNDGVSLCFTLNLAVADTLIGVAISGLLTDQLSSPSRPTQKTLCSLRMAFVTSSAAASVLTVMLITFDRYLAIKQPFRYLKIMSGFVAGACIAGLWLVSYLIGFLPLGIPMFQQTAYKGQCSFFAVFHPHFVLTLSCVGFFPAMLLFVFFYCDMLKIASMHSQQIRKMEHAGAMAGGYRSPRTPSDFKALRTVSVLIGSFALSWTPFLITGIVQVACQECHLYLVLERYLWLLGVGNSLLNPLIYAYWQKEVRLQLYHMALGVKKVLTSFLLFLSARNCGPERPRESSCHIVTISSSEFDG
Description: As a human GPR119 receptor expression cell for this test, the cell line “GeneBLAzer™ T-Rex GPR 119 CHO-K1 DA cells” that is commercially available from Invitrogen, was used. The cell was incubated in the DMEM media containing 1% dialyzed fetal bovine serum etc. The cell incubator was kept at constant temperature and constant humidity of 37° C., 5% CO2.
The human GPR119 receptor expressing cell was used to this test. Each of test compounds was added to be final concentrations of 0.1, 1, 10 μM in 96 well and tested in duplicate. A fixed amount of cell was added to each well of 96 well separately, and then treated with the test compound for 5 hours. After treatment of color development agent for 2 hours, the fluorescence value was determined with plate reader. To the luminous wavelength of control well, which was not treated with the agonist sample, but in which only a vehicle (i.e., cell) was contained, the ratio of the luminous wavelength of test well, which was treated with the agonist sample, was calculated, and then converted to obtain % value.
All the results were expressed as mean±SD, and each test groups and the control group were compared using student's t-test to adjudge the effects of each test groups.

[3] = target: T1, GPR 119 Receptor; test: Glucose tolerance test in normal mouse (animal test of activity for the GPR 119 receptor); format: in vivo; conditions: normal male C57/6J Jms mice, oral glucose 2 g/kg, whole blood glucose AUC
Description: Male C57/6J Jms mice of 6-7 weeks of age were fasted for 16 hours before the start of glucose tolerance test. The experimental animal groups consist of: • A. a vehicle group (10% EtOH, 20% HPBCD in saline), • B. a positive control group administered with MBX-2982 (10 mg/kg), and • C. test groups administered with compound 516, 581, 586, 612, 640, 644 or etc. (10 mg/kg).
Before compound administration, that is, at 0 hour, whole blood glucose level was determined using a Glucometer (ACCU-CHEK, Roche). At 30 minutes after compound administration, whole blood glucose level was determined once again, and 20% glucose (2 g/kg/10 mL) was administered orally. Whole blood glucose level was determined at 20, 40, 60, 80, and 120 minutes after 20% glucose administration. Area under the curve (AUC) of whole blood glucose level was obtained using GraphPad Prism 5.0. The effect of glucose tolerance was adjudged with the corrected area under the curve (cAUC), on which the base value of glucose area under the curve was excluded.

[4] = 30 mpk alone, 0 week (prior to start of administration)

N[C@@H](CC(=O)N1CCn2c(nnc2C(F)(F)F)C1)Cc1cc(F)c(F)cc1F [Sitagliptin, reference compound]
Whole Blood Glucose Level Change (%) by drug administration [1, 4]: 0% | Whole Blood Glucose Level Change (%) by drug administration ([1]; 30 mpk alone, 1 week): 25.5% | Whole Blood Glucose Level Change (%) by drug administration ([1]; 30 mpk alone, 2 weeks): 31.7%

CC(C)(F)CN1CCC(COc2ccc(-c3ccc(C(=O)N4CCC[C@H]4C(N)=O)c(F)c3)nc2)CC1 [Compound 770, (S)-1-(2-fluoro-4-(5-((1-(2-fluoro-2-methylpropyl)piperidin-4-yl)methoxy)pyridine-2-yl)benzoyl)pyrrolidine-2-carboxamide]
activity at 0.1 µM [2]: 228% | activity at 1 µM [2]: 280% | activity at 10 µM [2]: 310% | Decrease % of AUC at 10 mg/kg [3]: 47% | Whole Blood Glucose Level Change (%) by drug administration ([1]; 10 mpk alone, 0 week (prior to start of administration)): 0% | Whole Blood Glucose Level Change (%) by drug administration ([1]; 10 mpk alone, 1 week): 22.9% | Whole Blood Glucose Level Change (%) by drug administration ([1]; 10 mpk alone, 2 weeks): 24.0% | Whole Blood Glucose Level Change (%) by drug administration [1, 4]: 0% | Whole Blood Glucose Level Change (%) by drug administration ([1]; 30 mpk alone, 1 week): 25.5% | Whole Blood Glucose Level Change (%) by drug administration ([1]; 30 mpk alone, 2 weeks): 26.6%

CC(C)(F)CN1CCC(COc2cnc(-c3ccc(C(=O)N4CCC[C@H]4C(N)=O)c(F)c3)nc2)CC1 [Compound 1032, (S)-1-(2-fluoro-4-(5-((1-(2-fluoro-2-methylpropyl)piperidin-4-yl)methoxy)pyrimidin-2-yl)benzoyl)pyrrolidine-2-carboxamide]
activity at 0.1 µM [2]: 321% | activity at 1 µM [2]: 459% | activity at 10 µM [2]: 430% | Decrease % of AUC at 10 mg/kg [3]: 31%

CC(C)(F)CN1CCC(COc2cnc(-c3ccc(C(=O)N4CCC[C@H]4C(N)=O)c(F)c3)cn2)CC1 [Compound 944, (S)-1-(2-fluoro-4-(5-((1-(2-fluoro-2-methylpropyl)piperidin-4-yl)methoxy)pyrazine-2-yl)benzoyl)pyrrolidine-2-carboxamide]
activity at 0.1 µM [2]: 180% | activity at 1 µM [2]: 291% | activity at 10 µM [2]: 310% | Decrease % of AUC at 10 mg/kg [3]: 32%
